Like-named read-outs stand apart in the source and are kept apart here. Values belong to the compound of their own block, whether it stands above or below them.
How the values were obtained:
rat mGlu7 = biological target: T1, rat mGlu7 (Rattus norvegicus, UniProt P35400); assay: Thallium flux assay, mGlu7/GIRK HEK293 cells cocultured with pcDNA3 vector control cells; type: cell-based; settings: for baseline Resp ± SEM, pcDNA / Maximal Resp ± SEM, pcDNA / response below baseline at inactive L-AP4 concentrations / % inhibition Resp ± SEM, pcDNA: 10 μM compound; for baseline Resp ± SEM, pcDNA: average response at bottom three L-AP4 concentrations, Percent L-AP4/pcDNA/DMSO Max; for Maximal Resp ± SEM, pcDNA: average response at top two L-AP4 concentrations, normalized to L-AP4 max with pcDNA/DMSO; for response below baseline at inactive L-AP4 concentrations: observed regardless of the presence of Elfn1; for % inhibition Resp ± SEM, pcDNA: of maximal L-AP4 response; for IC50: compound concentration-response in presence of 600 μM L-AP4 (EC80), read-out: compound pIC50 ± SEM, pcDNA (converted); for compound Min Resp ± SEM, pcDNA: minimal curve fit response, 600 μM L-AP4, maximal inhibition at 30 μM compound, normalized to 600 μM L-AP4 response; for Emax: HEK293, read-out: PAM Maximal response, pcDNA; for Emax / EC50: PAM concentration-response at an EC20 concentration of L-AP4; for Fold potentiation, pcDNA: fold potentiation of an EC20 concentration of L-AP4
T1 construct: expressed in transfected cells; host or cells: HEK293A cells stably expressing mGlu7 and GIRK1/2
From the text: (§1) We began our evaluation of mGlu7 ligands in the presence and absence of Elfn1 by using a coculture system as previously described , with several modifications (Figure ). Cells expressing rat mGlu7 and coexpressing G protein inwardly rectifying potassium (GIRK) channels 1 and 2 were cocultured with cells expressing either an empty pcDNA3 vector control or a plasmid containing Elfn1 in the pcDNA3 backbone. We then evaluated the activity of the orthosteric agonist L-AP4 and measured effects on maximal response and pEC50. All responses were normalized to the maximal effect of L-AP4 in the presence of the pcDNA3 control plasmid.
(§2) 2 Assay design and workflow. (Left panel) Cells expressing rat mGlu7/GIRK (pink) were cocultured with pcDNA3 (blue) or Elfn1 (purple). […] (Right panel) The effect on the concentration–response curve in the presence (purple) or absence (blue) of Elfn1 can be seen by a change in efficacy, potency, and/or basal response.
(§3) HEK293A cells stably expressing mouse Elfn1 or pcDNA3 were maintained in growth medium containing 90% Dulbecco’s Modified Eagle Media (DMEM), 10% fetal bovine serum (FBS), 100 units/mL penicillin/streptomycin, 20 mM HEPES, 1 mM sodium pyruvate, 2 mM L-glutamine, 1× nonessential amino acids, and 700 μg/mL G418 sulfate. HEK mGlu7/GIRK cells were maintained in a growth medium with 90% DMEM/F12, 10% dialyzed FBS, 100 units/mL penicillin/streptomycin, 20 mM HEPES, 1 mM sodium pyruvate, 2 mM L-glutamine, 1× nonessential amino acids, 700 μg/mL G418 sulfate, and 600 ng/mL puromycin. All cell culture reagents were purchased from Invitrogen (Carlsbad, CA).
(§4) Thallium flux assays were performed as previously described. A mixture of HEK293A mGlu7/GIRK cells and pcDNA3 or Elfn1-expressing HEK293A cells (5000/15,000 cells/20 μL/well for agonist and PAM experiments; 7500/15,000 cells/20 μL/well for NAM experiments) was seeded in 384-well, amine-coated assay plates (Greiner Bio-One, Monroe, NC). Cells were incubated overnight in a humidified 5% CO2 cell culture incubator at 37 °C. […] Following a 1 h incubation at room temperature, the dye loading solution was replaced with 20 μL/well assay buffer and the plates were loaded into a Hamamatsu FDSS 7000 (Bridgewater, NJ). […] Thallium flux data were analyzed by first dividing each point in each wave by the first point in that wave and then subtracting the average of the vehicle control response. The slopes of these vehicle control-subtracted waves were calculated over ten data points beginning 2 s after thallium stimulus addition and fit to a three-parameter logistic equation in GraphPad Prism (La Jolla, CA). In most cases, the final data were normalized to the response of the mGlu7/pcDNA3 with vehicle and 5 mM L-AP4 unless otherwise noted. Potency (pEC50) and maximum responses (E max) induced by compounds were determined using a four-parameter logistical equation in Prism. Basal activity was calculated with data points at the three lowest test concentrations. Maximum activity was calculated with data points at two highest concentrations. All experiments were replicated at least three times in duplicate or triplicate.

mGlu7/Elfn1 = biological target: T2, mGlu7/Elfn1 (Rattus norvegicus, UniProt P35400); assay: Thallium flux assay, mGlu7/GIRK HEK293 cells cocultured with Elfn1-expressing cells; type: cell-based, mouse Elfn1; settings: for baseline Resp ± SEM, Elfn1 / Maximal Resp ± SEM, Elfn1 / % inhibition Resp ± SEM, Elfn1: 10 μM compound; for baseline Resp ± SEM, Elfn1: average response at bottom three L-AP4 concentrations, Percent L-AP4/pcDNA/DMSO Max; for Maximal Resp ± SEM, Elfn1: average response at top two L-AP4 concentrations, normalized to L-AP4 max with pcDNA/DMSO; for % inhibition Resp ± SEM, Elfn1: of maximal L-AP4 response; for IC50: compound concentration-response in presence of 600 μM L-AP4 (EC80), read-out: compound pIC50 ± SEM, Elfn1 (converted); for compound Min Resp ± SEM, Elfn1: minimal curve fit response, 600 μM L-AP4, maximal inhibition at 30 μM compound, normalized to account for lower agonist max with Elfn1; for Emax: HEK293, read-out: PAM Maximal response, Elfn1; for Fold potentiation, Elfn1: fold potentiation of an EC20 concentration of L-AP4
T2 construct: expressed in transfected cells; host or cells: HEK293A mGlu7/GIRK cells cocultured with HEK293A polyclonal cells stably expressing Elfn1-Myc (pcDNA3)
From the text: as §1, §2
HEK293A polyclonal cells stably expressing either Elfn1 or empty vector were passaged in media (Dulbecco’s modified Eagle medium (DMEM), supplemented with 10% fetal bovine serum (FBS), 20 mM N-(2-hydroxyethyl)-piperazine-N′-ethanesulfonic acid (HEPES), 1 mM Na pyruvate, 2 mM Glutamax, 0.1 mM nonessential amino acids, 1× antibiotic/antimycotic) under G418 (700 μg/mL) selection to maintain expression.
as §3
as §4, with “NJ). Data were acquired at 1 Hz (excitation 470 ± 20 nm, emission 540 ± 30 nm) for 10 s, followed by the addition of 20 μL/well of 10 μM NAM/PAM/DMSO, followed by an additional 4 min of data collection.” for “NJ).”, “Prism.” for “Prism. Basal activity was calculated with data points at the three lowest test concentrations. Maximum activity was calculated with data points at two highest concentrations. All experiments were replicated at least three times in duplicate or triplicate.”

[1] = 10 μM NAM, three lowest L-AP4 concentrations, normalized to mGlu7/pcDNA3 vehicle L-AP4 max
[2] = 10 μM PAM, L-AP4 CRC, normalized to percent L-AP4 response with pcDNA and DMSO
[3] = PAM concentration-response at an EC20 concentration of L-AP4

T2 sequence (P35400 35-915): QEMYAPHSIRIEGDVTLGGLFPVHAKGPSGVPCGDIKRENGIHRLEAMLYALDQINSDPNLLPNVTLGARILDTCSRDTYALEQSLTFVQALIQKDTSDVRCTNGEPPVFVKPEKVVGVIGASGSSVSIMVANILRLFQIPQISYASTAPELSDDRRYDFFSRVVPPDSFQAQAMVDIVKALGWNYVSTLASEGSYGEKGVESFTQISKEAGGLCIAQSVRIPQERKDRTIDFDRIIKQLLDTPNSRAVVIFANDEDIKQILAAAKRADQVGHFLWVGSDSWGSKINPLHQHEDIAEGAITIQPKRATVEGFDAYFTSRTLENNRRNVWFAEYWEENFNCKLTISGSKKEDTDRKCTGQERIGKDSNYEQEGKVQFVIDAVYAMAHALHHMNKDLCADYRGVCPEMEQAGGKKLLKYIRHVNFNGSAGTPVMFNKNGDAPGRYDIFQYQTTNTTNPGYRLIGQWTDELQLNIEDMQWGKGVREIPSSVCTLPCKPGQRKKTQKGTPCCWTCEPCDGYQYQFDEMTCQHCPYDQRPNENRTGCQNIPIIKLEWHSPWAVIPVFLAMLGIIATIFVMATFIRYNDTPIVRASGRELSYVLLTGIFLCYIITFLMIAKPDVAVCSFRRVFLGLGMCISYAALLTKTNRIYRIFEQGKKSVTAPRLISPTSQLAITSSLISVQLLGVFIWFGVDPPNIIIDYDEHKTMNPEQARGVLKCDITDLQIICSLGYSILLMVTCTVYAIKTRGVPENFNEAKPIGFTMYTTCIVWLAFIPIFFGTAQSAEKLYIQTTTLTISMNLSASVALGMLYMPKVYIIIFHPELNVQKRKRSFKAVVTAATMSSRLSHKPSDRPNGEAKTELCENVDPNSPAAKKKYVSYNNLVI
T2 sequence (Q8C8T7 26-828 partner): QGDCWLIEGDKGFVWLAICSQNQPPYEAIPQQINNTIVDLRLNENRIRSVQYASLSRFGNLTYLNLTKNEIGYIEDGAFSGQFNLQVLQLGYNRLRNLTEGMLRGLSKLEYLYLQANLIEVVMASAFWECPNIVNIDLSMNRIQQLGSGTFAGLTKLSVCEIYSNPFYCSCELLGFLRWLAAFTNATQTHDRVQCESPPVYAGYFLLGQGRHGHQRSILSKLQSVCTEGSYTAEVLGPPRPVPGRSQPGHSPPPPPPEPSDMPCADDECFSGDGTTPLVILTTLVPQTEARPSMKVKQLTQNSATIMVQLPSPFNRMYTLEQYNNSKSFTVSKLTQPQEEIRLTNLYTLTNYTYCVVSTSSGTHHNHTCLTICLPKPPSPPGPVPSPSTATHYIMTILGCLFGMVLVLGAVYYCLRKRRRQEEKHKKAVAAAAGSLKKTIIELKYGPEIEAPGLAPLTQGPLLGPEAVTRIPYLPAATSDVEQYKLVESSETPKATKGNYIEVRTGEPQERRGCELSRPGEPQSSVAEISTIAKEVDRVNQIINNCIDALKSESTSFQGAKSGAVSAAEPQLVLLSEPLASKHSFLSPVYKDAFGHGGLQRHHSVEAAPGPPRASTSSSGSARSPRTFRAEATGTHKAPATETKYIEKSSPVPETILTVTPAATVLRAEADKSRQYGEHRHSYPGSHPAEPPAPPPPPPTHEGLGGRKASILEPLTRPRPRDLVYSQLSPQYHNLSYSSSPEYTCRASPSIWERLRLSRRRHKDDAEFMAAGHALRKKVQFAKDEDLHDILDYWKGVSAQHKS
T1 sequence (P35400 35-915): as the sequence (P35400 35-915) above

Structure (SMILES): O=c1c(Oc2ccc(I)cc2)coc2cc(O)ccc12 [XAP044, reference compound]
baseline Resp ± SEM, pcDNA (rat mGlu7): –11.4 ± 4.8 % | Maximal Resp ± SEM, pcDNA (rat mGlu7): 1.7 ± 3.6 % | response below baseline at inactive L-AP4 concentrations (rat mGlu7): inverse agonist activity | % inhibition Resp ± SEM, pcDNA (rat mGlu7): 1.6 ± 3.5% | IC50 (rat mGlu7): 1660 nM | compound Min Resp ± SEM, pcDNA (rat mGlu7): 6.9 ± 6.5 | baseline Resp ± SEM, Elfn1 (mGlu7/Elfn1): –6.5 ± 1.3 % | Maximal Resp ± SEM, Elfn1 (mGlu7/Elfn1): –13.2 ± 1.7 % | % inhibition Resp ± SEM, Elfn1 (mGlu7/Elfn1): –30.4 ± 2.9 % | IC50 (mGlu7/Elfn1): 380 nM | compound Min Resp ± SEM, Elfn1 (mGlu7/Elfn1): 2.5 ± 8.4

Structure (SMILES): CCc1nc2c(o1)CC(c1ccc(C)cc1C)CC2=O (centres unmarked) [ADX71743, reference compound]
baseline Resp ± SEM, pcDNA (rat mGlu7): –21.5 ± 2.0 % | Maximal Resp ± SEM, pcDNA (rat mGlu7): –0.08 ± 1.4 % | response below baseline at inactive L-AP4 concentrations (rat mGlu7): inverse agonist activity | % inhibition Resp ± SEM, pcDNA (rat mGlu7): –0.11 ± 1.4% | IC50 (rat mGlu7): 195 nM | compound Min Resp ± SEM, pcDNA (rat mGlu7): –32.9 ± 8.0 | baseline Resp ± SEM, Elfn1 (mGlu7/Elfn1): –12.7 ± 2.9 % | Maximal Resp ± SEM, Elfn1 (mGlu7/Elfn1): –10.1 ± 1.7 % | % inhibition Resp ± SEM, Elfn1 (mGlu7/Elfn1): –22.4 ± 3.4 % | IC50 (mGlu7/Elfn1): 141 nM | compound Min Resp ± SEM, Elfn1 (mGlu7/Elfn1): –28.5 ± 5.5

Structure (SMILES): COC(=O)c1ccc(-n2c(C)cc(C(=O)CSc3ccc(NC(C)=O)cc3)c2C)cc1 [VU0155094]
baseline response ± SEM, pcDNA (rat mGlu7; [2]): 6.4±2.3% | Emax (rat mGlu7): 138 ± 5.2% | EC50 (rat mGlu7; read-out: PAM pEC50, pcDNA (converted)): 3550 nM | Fold potentiation, pcDNA (rat mGlu7): 4.4±0.3 fold | baseline response ± SEM, Elfn1 (mGlu7/Elfn1; [2]): 1.0±1.7% | Emax (mGlu7/Elfn1; [3]): 66.3 ± 3.6% | EC50 (mGlu7/Elfn1; PAM concentration-response at an EC20 concentration of L-AP4, read-out: PAM pEC50, Elfn1 (converted)): 2820 nM | Fold potentiation, Elfn1 (mGlu7/Elfn1): 2.7±0.2 fold

Structure (SMILES): COc1cc(F)cc2c(N3CCN(c4ccccc4F)CC3)c(C#N)cnc12 [VU6027459]
baseline response ± SEM, pcDNA (rat mGlu7; [2]): 25.6±12.0% | Emax (rat mGlu7): 75.8 ± 5.2% | EC50 (rat mGlu7; PAM pEC50, pcDNA): 1000 nM | Fold potentiation, pcDNA (rat mGlu7): 3.0±0.4 fold | baseline response ± SEM, Elfn1 (mGlu7/Elfn1; [2]): 12.5±8.4% | Emax (mGlu7/Elfn1; [3]): 44.1 ± 4.5% | EC50 (mGlu7/Elfn1; PAM pEC50, Elfn1, PAM concentration-response at an EC20 concentration of L-AP4): 1620 nM | Fold potentiation, Elfn1 (mGlu7/Elfn1): 2.0±0.2 fold

Structure (SMILES): COc1ccc(-c2nnc(-c3cc(OC(F)(F)F)ccc3-c3cn[nH]c3)o2)cc1OC [VU6019282]
baseline response ± SEM, pcDNA (rat mGlu7; [1]): –5.3 ± 3.7 | baseline response ± SEM, Elfn1 (mGlu7/Elfn1; [1]): –0.7 ± 4.5

Continued, values first:

baseline response ± SEM, pcDNA (rat mGlu7; [1]): –14.5 ± 2.6 | baseline response ± SEM, Elfn1 (mGlu7/Elfn1; [1]): –9.0 ± 0.9
Structure (SMILES): COc1ccc(C(=O)Nc2cc(OC(F)(F)F)ccc2-n2cncn2)cc1OC [VU6010608]

baseline response ± SEM, pcDNA (rat mGlu7; [1]): –11.5 ± 4.7 | baseline response ± SEM, Elfn1 (mGlu7/Elfn1; [1]): –5.7 ± 5.9
Structure (SMILES): COc1ccc(-c2noc(-c3cc(Cl)ccc3-n3cncn3)n2)cc1OC [VU6017743]

baseline response ± SEM, pcDNA (rat mGlu7; [1]): –12.5 ± 2.2 | baseline response ± SEM, Elfn1 (mGlu7/Elfn1; [1]): –8.1 ± 1.1
Structure (SMILES): CCCOc1ccc(C(=O)Nc2cc(OC(F)(F)F)ccc2-n2cncn2)cc1OC [VU6010953]

baseline response ± SEM, pcDNA (rat mGlu7; [1]): –6.6 ± 1.8 | baseline response ± SEM, Elfn1 (mGlu7/Elfn1; [1]): 0.2 ± 3.5
Structure (SMILES): COc1ccc(-c2cnc(-c3cc(OC(F)(F)F)ccc3-n3cncn3)o2)cc1OC [VU6018226]

baseline response ± SEM, pcDNA (rat mGlu7; [1]): –19.1 ± 2.4 | baseline response ± SEM, Elfn1 (mGlu7/Elfn1; [1]): –8.1 ± 2.0
Structure (SMILES): COc1cc(C(=O)Nc2cc(OC(F)(F)F)ccc2-n2cncn2)ccc1OCC1CC1 [VU6012962, N-(2-(1 H-1,2,4-triazol-1-yl)-5-(trifluoromethoxy)phenyl)-4-(cyclopropylmethoxy)-3-methox ybenzamide]

— paper PMC12333015, “Profiling the Impact of mGlu7/Elfn1 Protein Interactions on the Pharmacology of mGlu7 Allosteric Modulators” (ACS Chemical Neuroscience, 2025)
